Laboratory results reported in patent US12258344B2, “Azaaromatic amide derivatives for the treatment of cancer” (SHENZHEN FORWARD PHARMACEUTICALS CO., LTD., priority 2019, dated 2025).

What was measured:
BaF3 (HER2/P780insGSP) = BaF3 (HER2/P780insGSP) (Homo sapiens, UniProt P04626, cells depend on it, form not given); assay: Test 22: HER2 exon 20 inserted P780insGSP cell proliferation test; assay type: cell-based; conditions: 72 hours, Cell Titer-Glo, read-out: test 22 IC50
Protocol: Test 22: HER2 Exon 20 Inserted P780insGSP Cell Proliferation Test
The engineered cell line BaF3 (HER2/P780insGSP) was constructed by the inventor himself (for the method of cell line construction, see Jingrui Jiang et al., Cancer Res. 2005 Oct. 1; 65 (19): 8964-74; Jacqulyne P. Robichaux et al., Nat Med. 2018 May; 24 (5): 638-646). BaF3 (HER2/P780insGSP) was cultured in RPMI 1640 medium containing 10% fetal bovine serum and 2 mM glutamine, and the cells were grown at 37° C. in a humidified incubator with 5% CO2.
(§1) The number of viable cells in the culture was measured according to the protocol described in Promega's Cell Titer-Glo Luminescent cell Viability Assay (Promega catalog number #G7570). 90 μl of cells (3,000 cells/well) were cultured in growth medium in a Corning black transparent bottom 96-well plate, and cultured in a 5% CO2 humidified incubator at 37° C. overnight. The compound serially diluted in 100% DMSO was added to the cells using a pipette, and the cells were incubated for another 72 hours. 100 μl of the mixed Cell Titer-Glo reagent was added to the cells in the 96-well culture plate to lyse the cells and mix gently. Subsequently, the […] was detected on the Envision microplate detector to obtain the data of each compound. Finally, the data was input into a suitable software package (such as Prism) for curve fitting analysis.

HER4 kinase = target: T1, HER4 kinase (Homo sapiens, UniProt Q15303); assay: Test 24: HER4 kinase inhibition test; assay type: biochemical
T1 construct: made in house
Protocol: Test 24: HER4 Kinase Inhibition Test
Next, 100% DMSO was used to formulate the test compound into a solution of 50× at the final test concentration, and then sequentially diluted to 10 test concentrations; 100 μL of 100% DMSO was added to the blank control well as a negative control group without the compound and kinase. […] Finally, 10 μL of 2.5× peptide solution was added to the 384-well plate. After incubating at 25° C. for 10 minutes, 25 μL of reaction stop solution was added. Finally, the absorbance was detected on the Envision microplate detector to obtain the data of each compound. Finally, the data was input into a suitable software package (such as Prism) for curve fitting analysis.

BaF3 (EGFR/D770insSVD) [1] = target: T2, BaF3 (EGFR/D770insSVD) (Homo sapiens, UniProt P00533, DUP768-770, cells depend on it); assay: Test 13: EGFR exon 20 inserted D770insSVD cell proliferation test; assay type: cell-based; conditions: BaF3 (EGFR/D770insSVD), 72 hours, Cell Titer-Glo; read-out: Test 13 IC50
T2 construct: Test 13 IC50 (nM); other: BaF3 (EGFR/D770insSVD), 72 hours, Cell Titer-Glo
How it was run: (§2)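 BaF3 cells expressing EGFR D770insSVD, 3,000 cells/well, seeded overnight at 37° C, 5% CO2, then exposed to serially diluted compound for 72 h. Viable cells read by CellTiter-Glo luminescence; values from curve fitting.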

BaF3 (EGFR/D770insSVD) [2] = target: T3, BaF3 (EGFR/D770insSVD) (Homo sapiens, UniProt P00533, cells depend on it, form not given); assay: as above; assay type: cell-based; conditions: A763insFQEA, V769insASV, D770insSVD (tests 13-15), in words
T3 construct: other: A763insFQEA, V769ins
How it was run: as §2

BaF3 (EGFR/A763insFQEA) = BaF3 (EGFR/A763insFQEA) (Homo sapiens, UniProt P00533, INS763FQEA, cells depend on it); assay: Test 14: EGFR exon 20 inserted A763insFQEA cell proliferation test; assay type: cell-based; conditions: 72 hours, Cell Titer-Glo, read-out: Test 14 IC50
How it was run: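 BaF3 cells dependent on EGFR A763insFQEA, plated at 3,000 cells/well and cultured overnight at 37 °C, 5% CO2, then exposed to compound serial dilutions in DMSO for 72 h. Viable cells quantified by CellTiter-Glo luminescence; values from curve fitting.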

BaF3 (EGFR/V774insHV) = BaF3 (EGFR/V774insHV) (Homo sapiens, UniProt P00533, cells depend on it, form not given); assay: Test 18: EGFR exon 20 inserted V774insHV cell proliferation test; assay type: cell-based; conditions: 72 hours, Cell Titer-Glo, read-out: Test 18 IC50
Protocol: as §1

BaF3 (EGFR/L861Q) = BaF3 (EGFR/L861Q) (Homo sapiens, UniProt P00533, cells depend on it, form not given); assay: Test 20: EGFR/L861Q mutant cell line proliferation test; assay type: cell-based; conditions: 72 hours, Cell Titer-Glo, read-out: Test 20 IC50
Protocol: as §1, with “The compound serially diluted in 100% DMSO was added to the cells using a pipette, and the cells were incubated for another 72 hours.” left out

BaF3 (EGFR/S768I) [3] = target: T4, BaF3 (EGFR/S768I) (Homo sapiens, UniProt P00533, cells depend on it, form not given); assay: Test 19: EGFR/S768I mutant cell line proliferation test; assay type: cell-based; conditions: BaF3 (EGFR/S768I), 72 hours, Cell Titer-Glo; read-out: Test 19 IC50
T4 construct: other: BaF3 (EGFR/S768I), 72 hours, Cell Titer-Glo
Protocol: (§3) Test 19: EGFR/S768I Mutant Cell Line Proliferation Test
as §1

BaF3 (EGFR/S768I) [4] = target: T5, BaF3 (EGFR/S768I) (Homo sapiens, UniProt P00533, cells depend on it, form not given); assay: as above; assay type: cell-based; conditions: EGFR S768I and EGFR L861Q (tests 19-20), in words
T5 construct: other: EGFR S768I and EGFR L8
Protocol: as §3, §1

BaF3 (HER2/A775insYVMA) = target: T6, BaF3 (HER2/A775insYVMA) (Homo sapiens, UniProt P04626, cells depend on it, form not given); assay: Test 21: HER2 exon 20 inserted A775insYVMA cell proliferation test; assay type: cell-based; conditions: BaF3 (HER2/A775insYVMA), 72 hours, Cell Titer-Glo; read-out: test 21 IC50
T6 construct: other: BaF3 (HER2/A775insYVMA), 72 hours, Cell Titer-Glo
Protocol: Test 21: HER2 Exon 20 Inserted A775insYVMA Cell Proliferation Test
as §1

BaF3 (EGFR/V769insASV) = BaF3 (EGFR/V769insASV) (Homo sapiens, UniProt P00533, DUP767-769, cells depend on it); assay: Test 15: EGFR exon 20 inserted V769insASV cell proliferation test; assay type: cell-based; conditions: 72 hours, Cell Titer-Glo, read-out: Test 15 IC50
How it was run: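 BaF3 cells expressing EGFR V769insASV (3000 cells/well) plated overnight, then exposed to DMSO-diluted compound series for 72 h at 37 °C, 5% CO2. Viability by CellTiter-Glo luminescence; values from curve fitting.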

BaF3 (EGFR/N771insH) [5] = target: T7, BaF3 (EGFR/N771insH) (Homo sapiens, UniProt P00533, cells depend on it, form not given); assay: Test 16: EGFR exon 20 inserted N771insH cell proliferation test; assay type: cell-based; conditions: N771insH, D770insNPG, V774insHV (tests 16-18), in words
T7 construct: other: N771insH, D770insNPG

BaF3 (EGFR/N771insH) [6] = target: T8, BaF3 (EGFR/N771insH) (Homo sapiens, UniProt P00533, cells depend on it, form not given); assay: as above; assay type: cell-based; conditions: BaF3 (EGFR/N771insH), 72 hours, Cell Titer-Glo; read-out: Test 16 IC50
T8 construct: Test 16 IC50 (nM); other: BaF3 (EGFR/N771insH), 72 hours, Cell Titer-Glo

BaF3 (EGFR/D770insNPG) = BaF3 (EGFR/D770insNPG) (Homo sapiens, UniProt P00533, cells depend on it, form not given); assay: Test 17: EGFR exon 20 inserted D770insNPG cell proliferation test; assay type: cell-based; conditions: 72 hours, Cell Titer-Glo, read-out: Test 17 IC50
Protocol: Test 17: EGFR Exon 20 Inserted D770insNPG Cell Proliferation Test
as §1

BaF3 (HER2/G776insVC) = BaF3 (HER2/G776insVC) (Homo sapiens, UniProt P04626, cells depend on it, form not given); assay: Test 23: HER2 exon 20 inserted G776insVC cell proliferation test; assay type: cell-based; conditions: 72 hours, Cell Titer-Glo, read-out: test 23 IC50
Protocol: Test 23: HER2 Exon 20 Inserted G776insVC Cell Proliferation Test
as §1

T1 sequence (Q15303 26-1308): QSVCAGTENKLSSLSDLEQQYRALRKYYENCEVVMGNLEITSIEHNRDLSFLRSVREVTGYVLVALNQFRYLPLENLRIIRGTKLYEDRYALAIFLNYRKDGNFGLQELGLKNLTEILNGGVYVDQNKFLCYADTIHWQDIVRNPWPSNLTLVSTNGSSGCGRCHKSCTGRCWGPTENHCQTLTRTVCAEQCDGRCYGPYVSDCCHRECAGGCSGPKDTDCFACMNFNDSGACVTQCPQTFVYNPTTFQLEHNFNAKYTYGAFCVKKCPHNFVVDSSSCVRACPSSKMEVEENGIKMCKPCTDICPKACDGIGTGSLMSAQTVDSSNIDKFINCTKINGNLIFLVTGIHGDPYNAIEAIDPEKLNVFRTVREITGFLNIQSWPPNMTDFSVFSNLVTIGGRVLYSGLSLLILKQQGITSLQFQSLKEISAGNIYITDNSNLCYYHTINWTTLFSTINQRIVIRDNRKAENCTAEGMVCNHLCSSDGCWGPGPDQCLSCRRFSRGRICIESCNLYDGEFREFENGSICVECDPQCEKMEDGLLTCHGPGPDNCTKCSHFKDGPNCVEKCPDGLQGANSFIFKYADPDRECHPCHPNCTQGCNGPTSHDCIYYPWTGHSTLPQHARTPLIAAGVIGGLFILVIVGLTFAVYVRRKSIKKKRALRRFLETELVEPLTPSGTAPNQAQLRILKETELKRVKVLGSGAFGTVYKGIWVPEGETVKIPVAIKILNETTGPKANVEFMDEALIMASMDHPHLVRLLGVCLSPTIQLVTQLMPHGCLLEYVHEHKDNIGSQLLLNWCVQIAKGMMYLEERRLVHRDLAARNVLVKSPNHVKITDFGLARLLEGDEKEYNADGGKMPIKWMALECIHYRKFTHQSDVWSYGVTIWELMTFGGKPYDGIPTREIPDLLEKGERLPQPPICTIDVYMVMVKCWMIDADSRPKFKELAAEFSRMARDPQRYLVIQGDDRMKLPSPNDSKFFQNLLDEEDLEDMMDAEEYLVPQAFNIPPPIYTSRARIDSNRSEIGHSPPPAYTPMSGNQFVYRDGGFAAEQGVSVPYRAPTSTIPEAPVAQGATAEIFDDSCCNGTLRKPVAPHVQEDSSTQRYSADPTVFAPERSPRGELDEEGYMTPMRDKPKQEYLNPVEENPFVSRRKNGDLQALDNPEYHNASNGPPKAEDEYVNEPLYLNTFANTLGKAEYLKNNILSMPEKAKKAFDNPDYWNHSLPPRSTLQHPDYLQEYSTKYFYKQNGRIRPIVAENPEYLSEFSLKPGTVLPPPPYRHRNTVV
Chain of BaF3 (HER2/P780insGSP) (P04626 with tags, fused parts or gaps DELINS776-776VC): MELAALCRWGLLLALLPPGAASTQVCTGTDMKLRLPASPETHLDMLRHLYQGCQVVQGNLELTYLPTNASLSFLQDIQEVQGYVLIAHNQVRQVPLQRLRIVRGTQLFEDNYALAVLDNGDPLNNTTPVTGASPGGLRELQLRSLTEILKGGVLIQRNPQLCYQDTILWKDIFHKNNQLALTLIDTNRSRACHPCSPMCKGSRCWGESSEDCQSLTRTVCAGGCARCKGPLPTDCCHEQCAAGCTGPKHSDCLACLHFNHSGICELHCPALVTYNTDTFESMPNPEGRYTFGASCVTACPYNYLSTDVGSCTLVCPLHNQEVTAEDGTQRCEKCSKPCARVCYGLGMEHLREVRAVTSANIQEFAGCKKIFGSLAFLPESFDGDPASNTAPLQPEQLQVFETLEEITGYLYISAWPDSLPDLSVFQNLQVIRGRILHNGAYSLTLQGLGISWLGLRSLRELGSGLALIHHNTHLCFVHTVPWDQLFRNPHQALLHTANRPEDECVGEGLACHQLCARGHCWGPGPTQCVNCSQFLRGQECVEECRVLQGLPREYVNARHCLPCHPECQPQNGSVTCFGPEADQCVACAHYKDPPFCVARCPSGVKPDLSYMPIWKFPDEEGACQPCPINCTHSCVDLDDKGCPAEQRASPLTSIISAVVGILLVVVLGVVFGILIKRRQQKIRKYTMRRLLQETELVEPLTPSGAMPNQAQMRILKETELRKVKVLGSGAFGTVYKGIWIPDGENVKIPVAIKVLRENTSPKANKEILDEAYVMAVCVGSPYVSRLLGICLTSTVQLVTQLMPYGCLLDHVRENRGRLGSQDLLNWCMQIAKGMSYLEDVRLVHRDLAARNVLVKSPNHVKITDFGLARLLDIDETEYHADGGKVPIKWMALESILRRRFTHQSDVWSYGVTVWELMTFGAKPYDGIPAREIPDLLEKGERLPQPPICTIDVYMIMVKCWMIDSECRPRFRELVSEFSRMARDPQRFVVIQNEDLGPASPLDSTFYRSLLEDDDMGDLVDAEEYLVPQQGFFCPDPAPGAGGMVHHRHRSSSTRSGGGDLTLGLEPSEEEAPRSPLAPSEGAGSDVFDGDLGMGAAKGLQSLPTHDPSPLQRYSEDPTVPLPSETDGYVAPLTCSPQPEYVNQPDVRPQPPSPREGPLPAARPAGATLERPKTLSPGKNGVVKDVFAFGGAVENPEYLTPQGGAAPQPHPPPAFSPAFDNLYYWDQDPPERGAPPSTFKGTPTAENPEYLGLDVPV
Chain of BaF3 (HER2/G776insVC) (P04626 with tags, fused parts or gaps DUP772-775): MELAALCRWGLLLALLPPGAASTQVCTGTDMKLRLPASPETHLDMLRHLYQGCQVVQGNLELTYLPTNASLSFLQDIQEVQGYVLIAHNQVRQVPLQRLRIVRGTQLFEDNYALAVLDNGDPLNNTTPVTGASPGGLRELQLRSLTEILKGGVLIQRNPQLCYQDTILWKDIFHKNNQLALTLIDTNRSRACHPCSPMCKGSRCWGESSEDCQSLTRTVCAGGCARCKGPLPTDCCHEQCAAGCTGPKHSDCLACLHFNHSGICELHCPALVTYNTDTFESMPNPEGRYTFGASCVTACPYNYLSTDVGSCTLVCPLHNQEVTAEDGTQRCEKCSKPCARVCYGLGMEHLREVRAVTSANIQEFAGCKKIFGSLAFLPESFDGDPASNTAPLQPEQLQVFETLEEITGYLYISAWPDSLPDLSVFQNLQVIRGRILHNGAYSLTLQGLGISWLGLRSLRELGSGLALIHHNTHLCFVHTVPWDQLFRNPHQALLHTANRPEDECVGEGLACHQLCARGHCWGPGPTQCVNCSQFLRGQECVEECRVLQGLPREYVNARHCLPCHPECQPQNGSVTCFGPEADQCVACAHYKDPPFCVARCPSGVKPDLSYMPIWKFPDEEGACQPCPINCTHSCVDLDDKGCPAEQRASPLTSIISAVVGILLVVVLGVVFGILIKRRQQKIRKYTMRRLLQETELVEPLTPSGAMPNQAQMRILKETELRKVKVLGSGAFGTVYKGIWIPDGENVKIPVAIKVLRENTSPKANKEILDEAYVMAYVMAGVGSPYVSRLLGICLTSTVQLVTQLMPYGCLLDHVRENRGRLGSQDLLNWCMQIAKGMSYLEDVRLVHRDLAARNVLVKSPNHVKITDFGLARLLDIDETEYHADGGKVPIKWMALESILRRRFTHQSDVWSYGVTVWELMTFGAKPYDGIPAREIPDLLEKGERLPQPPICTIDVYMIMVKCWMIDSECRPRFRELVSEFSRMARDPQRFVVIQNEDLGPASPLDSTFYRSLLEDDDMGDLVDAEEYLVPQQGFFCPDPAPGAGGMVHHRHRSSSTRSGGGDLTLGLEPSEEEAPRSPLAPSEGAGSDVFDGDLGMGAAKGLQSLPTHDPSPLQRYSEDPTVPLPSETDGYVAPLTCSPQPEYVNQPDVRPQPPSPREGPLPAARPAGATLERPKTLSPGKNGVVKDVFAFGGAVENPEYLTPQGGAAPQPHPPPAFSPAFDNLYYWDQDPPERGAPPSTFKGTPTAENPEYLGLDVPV
T6 sequence (P04626 with tags, fused parts or gaps DUP778-780): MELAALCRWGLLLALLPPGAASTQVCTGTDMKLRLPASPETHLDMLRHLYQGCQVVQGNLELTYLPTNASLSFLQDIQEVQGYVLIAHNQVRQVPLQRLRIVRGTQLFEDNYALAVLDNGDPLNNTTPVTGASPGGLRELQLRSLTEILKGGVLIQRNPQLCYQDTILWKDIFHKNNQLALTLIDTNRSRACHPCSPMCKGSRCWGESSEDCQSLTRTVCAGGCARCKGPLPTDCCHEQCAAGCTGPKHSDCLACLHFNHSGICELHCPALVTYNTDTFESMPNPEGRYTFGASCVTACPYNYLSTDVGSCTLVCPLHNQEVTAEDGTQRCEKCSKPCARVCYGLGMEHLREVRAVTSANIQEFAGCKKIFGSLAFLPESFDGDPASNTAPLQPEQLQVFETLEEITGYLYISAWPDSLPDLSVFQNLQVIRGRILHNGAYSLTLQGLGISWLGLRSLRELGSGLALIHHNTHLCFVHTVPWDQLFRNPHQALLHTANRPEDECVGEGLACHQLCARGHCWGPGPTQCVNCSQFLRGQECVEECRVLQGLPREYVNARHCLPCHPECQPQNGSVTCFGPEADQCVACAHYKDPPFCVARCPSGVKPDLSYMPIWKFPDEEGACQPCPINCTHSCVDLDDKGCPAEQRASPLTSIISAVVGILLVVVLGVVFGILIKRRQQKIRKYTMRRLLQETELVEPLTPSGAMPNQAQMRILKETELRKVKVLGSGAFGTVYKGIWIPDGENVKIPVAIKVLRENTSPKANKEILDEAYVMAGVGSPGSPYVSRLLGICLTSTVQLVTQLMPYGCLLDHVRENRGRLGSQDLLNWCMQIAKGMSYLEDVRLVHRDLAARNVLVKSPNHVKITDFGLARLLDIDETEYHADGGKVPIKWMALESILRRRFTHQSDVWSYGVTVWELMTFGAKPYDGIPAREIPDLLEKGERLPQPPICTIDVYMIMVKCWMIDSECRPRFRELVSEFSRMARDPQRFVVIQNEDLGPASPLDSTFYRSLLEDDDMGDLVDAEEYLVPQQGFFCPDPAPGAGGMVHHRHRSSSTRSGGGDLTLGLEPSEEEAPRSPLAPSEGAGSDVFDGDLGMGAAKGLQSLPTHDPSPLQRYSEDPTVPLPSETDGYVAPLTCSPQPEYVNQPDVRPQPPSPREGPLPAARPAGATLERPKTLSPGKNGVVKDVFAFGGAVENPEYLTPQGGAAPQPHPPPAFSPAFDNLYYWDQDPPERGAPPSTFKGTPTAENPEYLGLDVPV

GI50 (BaF3 (HER2/P780insGSP)): 1.64 nM
IC50 value lower than that of Osimertinib (AZD9291) (HER4 kinase; HER4 kinase): about 1 fold
IC50 (HER4 kinase; HER4 kinase inhibition test, read-out: Test 12 HER4 IC50): 29 nM
GI50 (BaF3 (EGFR/D770insSVD) [1]): 35.8 nM
GI50 (BaF3 (EGFR/A763insFQEA)): 12.8 nM
GI50 (BaF3 (EGFR/V774insHV)): 7.59 nM
GI50 (BaF3 (EGFR/L861Q)): 21.6 nM
GI50 (BaF3 (EGFR/S768I) [3]): 8.63 nM
GI50 (BaF3 (HER2/A775insYVMA)): 7.67 nM
GI50 (BaF3 (EGFR/V769insASV)): 24.8 nM
GI50 (BaF3 (EGFR/N771insH) [6]): 8.67 nM
GI50 (BaF3 (EGFR/D770insNPG)): 4.69 nM
GI50 (BaF3 (HER2/G776insVC)): 12 nM
SMILES: C=CC(=O)Nc1cc(Nc2ncnc(-c3cn(C)c4ccccc34)n2)c(OC)cc1N(C)CCN(C)C [Compound 16]
cell activity compared with Osimertinib (AZD9291) against EGFR exon 20 insertion mutations (BaF3 (EGFR/D770insSVD) [2]): significant superior cell activity over Osimertinib (AZD9291)
activity compared with Osimertinib (AZD9291) against EGFR S768I and EGFR L861Q mutations (BaF3 (EGFR/S768I) [4]): superior activity over Osimertinib (AZD9291)
cell activity compared with Osimertinib (AZD9291) against EGFR exon 20 insertion mutations (BaF3 (EGFR/N771insH) [5]): significantly superior cell activity over Osimertinib (AZD9291)
